# Results as given in patent publication US10385057B2, “Pyrazole compounds and methods of making and using same” (Lundbeck La Jolla Research Center, Inc., priority 2015, dated 2019).
# Tests used:
# [1] = target: T1, FAAH (Mus musculus, UniProt O08914); assay: In vitro competitive activity-based protein profiling, mouse FAAH; format: biochemical; conditions: for inhibition at 1 µM: read-out: FAAH % inh. 1 μM (mouse)
# T1 construct: mouse brain membrane fraction or cell lysates for mouse assays; from tissue
# T1 sequence (O08914 1-579): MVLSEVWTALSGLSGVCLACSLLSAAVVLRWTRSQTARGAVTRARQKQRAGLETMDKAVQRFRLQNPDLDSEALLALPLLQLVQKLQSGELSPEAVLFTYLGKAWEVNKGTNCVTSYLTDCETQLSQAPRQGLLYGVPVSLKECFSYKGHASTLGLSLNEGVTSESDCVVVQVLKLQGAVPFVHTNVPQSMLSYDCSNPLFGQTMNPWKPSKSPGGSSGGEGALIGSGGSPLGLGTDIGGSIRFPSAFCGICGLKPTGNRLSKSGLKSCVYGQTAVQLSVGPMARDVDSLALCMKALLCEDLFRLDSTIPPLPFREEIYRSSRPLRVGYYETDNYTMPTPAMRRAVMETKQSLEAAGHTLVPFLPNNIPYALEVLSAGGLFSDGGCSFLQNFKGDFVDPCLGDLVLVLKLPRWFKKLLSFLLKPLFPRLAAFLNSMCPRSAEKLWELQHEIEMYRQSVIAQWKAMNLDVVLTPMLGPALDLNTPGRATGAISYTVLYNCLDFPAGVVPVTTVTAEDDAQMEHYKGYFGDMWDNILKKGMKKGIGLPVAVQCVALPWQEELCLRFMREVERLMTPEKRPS
# Outline: (§1)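 Activity measured as fluorescent gel-band intensity of MAGL and FAAH after SDS-PAGE. Before labelling with FP-Rh or HT-01 (30 min, 37 °C), proteomes at 1.0 mg/mL (mouse brain membrane or lysates; human prefrontal cortex or cell membranes) were exposed to varying inhibitor concentrations for 30 min at 37 °C.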
# [2] = target: T2, MAGL (Mus musculus, UniProt O35678); assay: In vitro competitive activity-based protein profiling, mouse MAGL; format: biochemical; conditions: for inhibition at 1 µM: read-out: MAGL % inh. 1 μM (mouse)
# T2 construct: mouse brain membrane fraction or cell lysates for mouse assays; from tissue
# T2 sequence (O35678 1-303): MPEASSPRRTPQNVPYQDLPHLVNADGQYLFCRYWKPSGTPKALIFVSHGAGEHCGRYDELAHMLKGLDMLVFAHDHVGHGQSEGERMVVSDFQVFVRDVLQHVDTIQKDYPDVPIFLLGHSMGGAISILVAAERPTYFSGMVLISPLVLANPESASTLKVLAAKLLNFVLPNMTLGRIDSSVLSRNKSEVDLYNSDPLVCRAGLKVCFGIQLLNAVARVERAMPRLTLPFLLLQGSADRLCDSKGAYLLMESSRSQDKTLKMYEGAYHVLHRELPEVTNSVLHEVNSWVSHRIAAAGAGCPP
# Outline: as §1
SMILES,IC50 [1] [µM],inhibition at 1 µM [1] [%],IC50 [2] [µM],inhibition at 1 µM [2] [%]
"COc1ccccc1CN1CCC2(CCN(C(=O)n3cc(C(F)(F)F)cn3)C2)C1 (stereo not drawn) [Example 179, (7-(2-methoxybenzyl)-2,7-diazaspiro[4.4]nonan-2-yl)(4-(trifluoromethyl)-1H-pyrazol-1-yl)methanone]",–,50 to 75,–,≥ 75
"O=C(N1CCC2(CCN(Cc3ccccc3C(F)(F)F)C2)C1)n1cc(C(F)(F)F)cn1 (stereo not drawn) [Example 180, (4-(trifluoromethyl)-1H-pyrazol-1-yl)(7-(2-(trifluoromethyl)benzyl)-2,7-diazaspiro[4.4]nonan-2-yl)methanone]",–,≥ 75,–,≥ 75
"O=C(N1CCC2(CCN(Cc3ccccc3N3CCCC3)C2)C1)n1cc(C(F)(F)F)cn1 (stereo not drawn) [Example 181, (7-(2-(pyrrolidin-1-yl)benzyl)-2,7-diazaspiro[4.4]nonan-2-yl)(4-(trifluoromethyl)-1H-pyrazol-1-yl)methanone]",–,25 to 50,–,≥ 75
"O=C(N1CCC2(CCN(Cc3ccccc3N3CCOCC3)C2)C1)n1cc(C(F)(F)F)cn1 (stereo not drawn) [Example 182, 2-{[2-(morpholin-4-yl)phenyl]methyl}-7-{[4-(trifluoromethyl)-1H-pyrazol-1-yl]carbonyl}-2,7-diazaspiro[4.4]nonane]",–,25 to 50,–,≥ 75
"CN(Cc1ccc(C(F)(F)F)cc1)[C@H]1C[C@@H]2CN(C(=O)n3cc(C(=O)N4CCOCC4)cn3)C[C@@H]2C1 [Example 184, (trans-5-(methyl(4-(trifluoromethyl)benzyl)amino)hexahydrocyclopenta[c]pyrrol-2(1H)-yl)(4-(morpholine-4-carbonyl)-1H-pyrazol-1-yl)methanone]",–,≥ 75,–,50 to 75
"CN(Cc1ccc(C(F)(F)F)cc1)[C@H]1C[C@@H]2CN(C(=O)n3cc(C(=O)N4CCN(C5CC5)CC4)cn3)C[C@@H]2C1 [Example 186, (4-cyclopropylpiperazin-1-yl)(1-(trans-5-(methyl(4-(trifluoromethyl)benzyl)amino)octahydrocyclopenta[c]pyrrole-2-carbonyl)-1H-pyrazol-4-yl)methanone]",–,≥ 75,–,≥ 75
"O=C(O)c1cnn(C(=O)N2CC3CN(Cc4cccc(Oc5ccccc5)c4)CC3C2)c1 (stereo not drawn) [Example 187, 1-(5-(3-phenoxybenzyl)octahydropyrrolo[3,4-c]pyrrole-2-carbonyl)-1H-pyrazole-4-carboxylic acid]",–,≥ 75,–,50 to 75
"O=C(c1cnn(C(=O)N2CC3CN(Cc4ccc(Oc5ccc(Cl)cc5)cc4)CC3C2)c1)N1CCCC1 (stereo not drawn) [Example 189, (5-(4-(4-chlorophenoxy)benzyl)hexahydropyrrolo[3,4-c]pyrrol-2(1H)-yl)(4-(pyrrolidine-1-carbonyl)-1H-pyrazol-1-yl)methanone]",≤ 0.1,≥ 75,0.1 to 1,50 to 75
"CN(Cc1ccc(-c2cccnn2)cc1C(F)(F)F)[C@@H]1C[C@@H]2CN(C(=O)n3cc(C(N)=O)cn3)C[C@@H]2C1 [Example 191, 1-(cis-5-(methyl(4-(pyridazin-3-yl)-2-(trifluoromethyl)benzyl)amino)octahydrocyclopenta[c]pyrrole-2-carbonyl)-1H-pyrazole-4-carboxamide]",–,≥ 75,–,≥ 75
"NC(=O)c1cnn(C(=O)N2CC[C@@]3(CCN(Cc4cc(Cl)cc(C(F)(F)F)c4)C3)C2)c1 [Example 192, (R)-1-(7-(3-chloro-5-(trifluoromethyl)benzyl)-2,7-diazaspiro[4.4]nonane-2-carbonyl)-1H-pyrazole-4-carboxamide]",≤ 0.1,–,≤ 0.1,–
"NC(=O)c1cnn(C(=O)N2CC[C@]3(CCN(Cc4cc(Cl)cc(C(F)(F)F)c4)C3)C2)c1 [Example 193, (S)-1-(7-(3-chloro-5-(trifluoromethyl)benzyl)-2,7-diazaspiro[4.4]nonane-2-carbonyl)-1H-pyrazole-4-carboxamide]",≤ 0.1,–,≤ 0.1,–
"NC(=O)c1cnn(C(=O)N2CC[C@@]3(CCN(Cc4ccc(N5CCOCC5)cc4C(F)(F)F)C3)C2)c1 [Example 194, (R)-1-(7-(4-morpholino-2-(trifluoromethyl)benzyl)-2,7-diazaspiro[4.4]nonane-2-carbonyl)-1H-pyrazole-4-carboxamide]",–,≥ 75,–,≥ 75
"O=C(c1cnn(C(=O)N2CC3CN(Cc4cccc(Oc5ccc(Cl)cc5)c4)CC3C2)c1)N1CCOCC1 (stereo not drawn) [Example 199, (5-(3-(4-chlorophenoxy)benzyl)hexahydropyrrolo[3,4-c]pyrrol-2(1H)-yl)(4-(morpholine-4-carbonyl)-1H-pyrazol-1-yl)methanone]",≤ 0.1,≥ 75,1 to 10,25 to 50

# Now from value to compound:
IC50 [1] [µM],inhibition at 1 µM [1] [%],IC50 [2] [µM],inhibition at 1 µM [2] [%],SMILES
≤ 0.1,≥ 75,≤ 0.1,≥ 75,"O=C(N1CCC2(CCN(Cc3cccc(Cl)c3)C2)C1)n1cc(C(F)(F)F)cn1 (stereo not drawn) [Example 168, (7-(3-chlorobenzyl)-2,7-diazaspiro[4.4]nonan-2-yl)(4-(trifluoromethyl)-1H-pyrazol-1-yl)methanone]"
≤ 0.1,≥ 75,0.1 to 1,≥ 75,"O=C(N1CCC2(CCN(Cc3cccc(F)c3)C2)C1)n1cc(C(F)(F)F)cn1 (stereo not drawn) [Example 169, (7-(3-fluorobenzyl)-2,7-diazaspiro[4.4]nonan-2-yl)(4-(trifluoromethyl)-1H-pyrazol-1-yl)methanone]"
≤ 0.1,≥ 75,0.1 to 1,≥ 75,"Cc1cccc(CN2CCC3(CCN(C(=O)n4cc(C(F)(F)F)cn4)C3)C2)c1 (stereo not drawn) [Example 170, (7-(3-methylbenzyl)-2,7-diazaspiro[4.4]nonan-2-yl)(4-(trifluoromethyl)-1H-pyrazol-1-yl)methanone]"
≤ 0.1,≥ 75,0.1 to 1,≥ 75,COc1cccc(CN2CCC3(CCN(C(=O)n4cc(C(F)(F)F)cn4)C3)C2)c1 (stereo not drawn) [Example 171]
≤ 0.1,≥ 75,≤ 0.1,≥ 75,"O=C(N1CCC2(CCN(Cc3cccc(C(F)(F)F)c3)C2)C1)n1cc(C(F)(F)F)cn1 (stereo not drawn) [Example 172, (4-(trifluoromethyl)-1H-pyrazol-1-yl)(7-(3-(trifluoromethyl)benzyl)-2,7-diazaspiro[4.4]nonan-2-yl)methanone]"
–,≥ 75,–,≥ 75,"Cc1ccc(CN2CCC3(CCN(C(=O)n4cc(C(F)(F)F)cn4)C3)C2)cc1 (stereo not drawn) [Example 173, (7-(4-methylbenzyl)-2,7-diazaspiro[4.4]nonan-2-yl)(4-(trifluoromethyl)-1H-pyrazol-1-yl)methanone]"
–,≥ 75,–,≥ 75,"O=C(N1CCC2(CCN(Cc3cccc(N4CCCC4)c3)C2)C1)n1cc(C(F)(F)F)cn1 (stereo not drawn) [Example 174, (7-(3-(pyrrolidin-1-yl)benzyl)-2,7-diazaspiro[4.4]nonan-2-yl)(4-(trifluoromethyl)-1H-pyrazol-1-yl)methanone]"
–,≥ 75,–,≥ 75,"O=C(N1CCC2(CCN(Cc3cccc(N4CCOCC4)c3)C2)C1)n1cc(C(F)(F)F)cn1 (stereo not drawn) [Example 175, (7-(3-morpholinobenzyl)-2,7-diazaspiro[4.4]nonan-2-yl)(4-(trifluoromethyl)-1H-pyrazol-1-yl)methanone]"
≤ 0.1,≥ 75,≤ 0.1,≥ 75,"O=C(N1CCC2(CCN(Cc3ccccc3Cl)C2)C1)n1cc(C(F)(F)F)cn1 (stereo not drawn) [Example 176, (7-(2-chlorobenzyl)-2,7-diazaspiro[4.4]nonan-2-yl)(4-(trifluoromethyl)-1H-pyrazol-1-yl)methanone]"
–,≥ 75,–,≥ 75,"O=C(N1CCC2(CCN(Cc3ccccc3F)C2)C1)n1cc(C(F)(F)F)cn1 (stereo not drawn) [Example 177, (7-(2-fluorobenzyl)-2,7-diazaspiro[4.4]nonan-2-yl)(4-(trifluoromethyl)-1H-pyrazol-1-yl)methanone]"
0.1 to 1,≥ 75,0.1 to 1,≥ 75,"Cc1ccccc1CN1CCC2(CCN(C(=O)n3cc(C(F)(F)F)cn3)C2)C1 (stereo not drawn) [Example 178, (7-(2-methylbenzyl)-2,7-diazaspiro[4.4]nonan-2-yl)(4-(trifluoromethyl)-1H-pyrazol-1-yl)methanone]"
